Test results reported in publication PMC9962372, “Antiparasitic Meroterpenoids Isolated from Memnoniella dichroa CF-080171” (Pharmaceutics, 2023).
Where two headings read alike, the source gives them in different places.

Experiments:
[1] = Cytotoxicity assay (resazurin) in L6 rat skeletal muscle cells; type: cell-based; conditions: L6 rat skeletal muscle cells (ATCC CRL-1458), read-out: Cytotoxic EC50 L6
Experimental: Seeding of the L6 cells was done in 96-well plates at 4 × 10^3 cells per well in 100 µL volume; they were then cultured for 24 h. Ten millimolar (10 mM) DMSO stocks of the compounds to be tested were used to prepare 16-point dose-response curves. Each concentration was evaluated in triplicate (using the cell culture medium as diluent) at a final volume of 300 µL (compound concentration range of 50–0.00152 µM and DMSO at 0.5 %). The spent growth medium from the 24 h-seeded cells was carefully replaced with 100 µL of the prepared working concentrations of the compounds to be tested and incubated for 72 h. The spent medium was again carefully replaced (without disturbing the layer of cells at the bottom of each well) with 100 µL fresh medium, after which 20 µL of 0.02% resazurin (previously diluted in 1X PBS) was added to the wells and incubated for 2 h in the dark at 37 °C. The plates were then shaken for 5 s, and fluorescence was read at 570–590 nm in a TECAN Infinite F200 fluorimeter.

T. cruzi Tulahuen C4 = test: Transgenic T. cruzi β-D-galactosidase assay in infected L6 cells; type: cell-based, Trypanosoma cruzi; conditions: for EC50: 96 h, infected L6 host cells, β-galactosidase readout, read-out: Antiparasitic EC50 T. cruzi Tulahuen C4; for activity against T. cruzi Tulahuen (in words): whole parasites, extracts in HTS / bioassay-guided testing
Experimental: (§1) The EC50 of all the biological assays were computed with the Genedata Screener application (Genedata AG, Basel, Switzerland) using the equation below to calculate percentage inhibition: Percentage inhibition=[1−(Abswell−Absneg/Abspos−Absneg)]×100
(§2) Here, Abswell = absorbance/well, Abspos = average absorbance in positive control wells, and Absneg = average absorbance in negative wells.
The EC50 determinations of the isolated compounds were performed with 16-point dose-response curves. Each concentration was evaluated in triplicate (concentration range of 50–0.00152 µM) in the transgenic T. cruzi β-D-galactosidase assay as previously described by Annang et al., 2014 [27]. The T. cruzi Tulahuen strain used is a genetically modified strain that expresses the Escherichia coli β-galactosidase gene, lacZ [28]. It was kindly supplied by Marcel Kaiser (Swiss Tropical and Public Health Institute). The parasites were generally maintained in a growth medium (RPMI 1640 supplemented with 10% inactivated fetal bovine serum (iFBS), 100 µg/mL streptomycin, 100 U/mL penicillin, 2 mM L-glutamine) at 37 °C, 5% CO2. For the assay, transgenic trypomastigote stage parasites were used to infect L6 rat skeletal muscle cells (host). Fifty-five microliters (55 µL) of the infected L6 cell culture were dispensed into 384-well assay plates (2 × 10^3 infected L6 cells/well) containing 5 µL of the test compounds (parasite medium/10 µgmL^−1 benznidazole were used as positive/negative growth controls) and incubated for 96 h at 37 °C, after which 15 µL of assay solution (100 µM CRPG and 0.1% NP40 made up in PBS) were added to each well, and plates were further incubated in the dark for 4 h at 37 °C. Absorbance in the wells was read at 585 nm in an Envision plate reader (Perkin Elmer, Waltham, MA, USA).

P. falciparum 3D7 [2] = test: P. falciparum 3D7 lactate dehydrogenase whole parasite assay; type: cell-based, Plasmodium falciparum; conditions: whole parasites; extracts in HTS / bioassay-guided testing
P. falciparum 3D7 [3] = test: as above; type: cell-based, Plasmodium falciparum; conditions: for EC50: Plasmodium falciparum
Experimental: The EC50 determinations of the isolated compounds were performed with 16-point dose-response curves. Each concentration was evaluated in triplicate (concentration range of 100–0.00305 µM) using the P. falciparum 3D7 lactate dehydrogenase whole parasite assay as previously described by Pérez-Moreno et al., 2016 [25]. The Plasmodium falciparum 3D7 strain is a clone of the NF54 strain, which was previously isolated from a patient. The parasites were maintained in O^+ human erythrocytes at 5% haematocrit and 0.1–8% parasitaemia, with incubation at 37 °C, 1% O2, 5% CO2, and 94% N2 in complete medium (10.4 g/L RPMI 1640, 150 μM hypoxanthine, 12.5 μg/mL gentamicin, 0.2% NaHCO3, 0.5% albuMAX II, 2% human O^+ serum). The […] (LDH) assay was performed in 384-well plates using late-ring/early trophozoite synchronized parasites at 2% hematocrit and 0.25% parasitaemia. Twenty-five microliters of (25 µL) parasite culture were incubated with 5 µL of the test compounds (parasite medium/100 nM chloroquine used as positive/negative growth controls) for 72 h, after which the plates were frozen for 4 h, thawed for 1 h at room temperature before adding 70 µL of freshly prepared LDH solution (1 U/mL diaphorase, 143 µM APAD, 143 mM sodium L-lactate, 178.75 µM NBT, 0.7% Tween 20, 100 mM Tris-HCL) at pH 8.0. Plates were briefly shaken and incubated for 10 min (in the dark), and absorbance was read at 650 nm in an Envision plate reader (Perkin Elmer, Waltham, MA, USA).
as §1, §2

[4] = tested on: three different cell lines; design: method as in PMID 10656571; conditions: at 100 µM; cited from earlier work
[5] = MTT-based cytotoxicity assay in HepG2 cells; type: cell-based; conditions: human, Hep G2 liver carcinoma cells (ATCC HB-8065); 72 h, MTT; read-out: Cytotoxic EC50 Hep G2
Experimental: as §1, §2
(§3) The EC50 determinations of the isolated compounds were performed with 12-point dose-response curves. Each concentration was evaluated in triplicate (concentration range of 50–0.0244 µM) in an MTT-based assay performed in liver carcinoma Hep G2 HB-8065 ATCC (American Type Culture Collection) cells as previously described by Annang et al., 2020 [29]. Cells (96-well plates were used with seeding at 1 × 10^4 cells/well) were cultured in 200 µL MEM medium per well at 37 °C, 5% CO2 for 24 h, after which the spent media were replaced with 200 µL MEM medium and 1 μL of test compounds. DMSO (0.5%), 8 mM methyl methanesulfonate and doxorubicin were used as positive, negative, and standard drug controls, respectively. After 72 h incubation with the test compounds at 37 °C, 100 µL of 0.5 mg/mL MTT solution diluted in MEM without phenol red was added to each well, and plates were briefly shaken and further incubated for 3 h at 37 °C. The supernatant in each well was carefully discarded and replaced with 100 µL of DMSO, and plates were gently shaken (to solubilize the formazan formed) before reading the absorbance at 570 nm in a Victor2 plate reader (Perkin Elmer, USA).

Hep G2 cells = test: MTT-based cytotoxicity assay in HepG2 cells; type: cell-based; conditions: Hep G2 EC50 versus P. falciparum 3D7 EC50
Experimental: as §1, §2, §3

[6] = Trypanosoma cruzi, TULAHUEN, L6, 96 h
[7] = 3D7, 72 h, LDH readout, 16-point curves in triplicate, read-out: Antiparasitic EC50 P. falciparum 3D7
[8] = 3D7 / TULAHUEN, read-out: antiparasitic EC50 against both parasites (range)
[9] = C3 ketone (1) versus C3 hydroxyl (2)

| Structure (SMILES) | EC50 at 72 h [1] [nM] | EC50 (T. cruzi Tulahuen C4; [6]) [nM] | activity against T. cruzi Tulahuen (in words) (T. cruzi Tulahuen C4) | activity against P. falciparum 3D7 (in words) (P. falciparum 3D7 [2]) | EC50 (P. falciparum 3D7 [3]; [7]) [nM] | EC50 at 72 h [5] [nM] | Selectivity index (SI), Hep G2 in comparison to activity in P. falciparum 3D7 (Hep G2 cells) | further results |
| --- | --- | --- | --- | --- | --- | --- | --- | --- |
| C=C1CC[C@H]2C(C)(C)C(=O)CC[C@]2(C)[C@H]1Cc1c(O)cc2c(c1O)C(=O)OC2 [Compound 7] | > 50000 | > 50000 | low or no biological activity | low or no biological activity | > 100000 |  |  |  |
| CC(=O)O[C@H]1CC[C@]2(C)[C@H]3Cc4c(O)cc5c(c4O[C@]3(C)CC[C@H]2C1(C)C)CN(CCO)C5=O [Compound 3, 8-epi-memnobotrin B] |  | 41770 ± 10 |  |  | 7170 ± 50 |  |  | fold lower potency against T. cruzi Tulahuen C4 in comparison to compound 1 (T. cruzi Tulahuen C4): 157 fold; fold lower potency against P. falciparum 3D7 in comparison to compound 1 (P. falciparum 3D7 [3]): 179 fold |
| C/C(=C\CCC1(C)C=Cc2c(cc3c(c2O)C(=O)OC3)O1)CCC(O)C(C)(C)O (stereo not shown) [Compound 5] | > 50000 | > 50000 | low or no biological activity | low or no biological activity | 8000 ± 200 |  |  |  |
| CC1(C)[C@@H](O)CC[C@]2(C)[C@H]3Cc4c(O)cc5c(c4O[C@]3(C)CC[C@@H]12)C(=O)OC5 [Compound 8] |  | > 50000 | low or no biological activity | low or no biological activity | 17800 ± 100 |  |  |  |
| CC(=O)O[C@H]1CC[C@]2(C)[C@H]3Cc4c(O)cc5c(c4O[C@@]3(C)CC[C@H]2C1(C)C)CN(CCO)C5=O [Memnobotrin B] |  |  |  |  |  |  |  | cytotoxic activity, inhibition percentages [4]: 80–90% |
| Cc1cc(O)c2c(c1)O[C@]1(C)CC[C@H]3C(C)(C)[C@@H](O)CC[C@]3(C)[C@H]1C2 [Compound 6] | 2000 ± 100 | 7000 ± 200 | low or no biological activity | low or no biological activity | 4000 ± 100 |  |  |  |
| CC(=CCc1c(O)cc2c(c1O)C(=O)OC2)CCC=C(C)CCCC(C)(C)OC1OC(CO)C(O)C(O)C1O (stereo not shown) [Compound 4] |  | 934 ± 88 |  |  | 243 ± 23 | 4840 | 19.9 |  |
| CC1(C)[C@@H](O)CC[C@]2(C)[C@H]3Cc4c(O)cc5c(c4O[C@]3(C)CC[C@@H]12)CN(CCO)C5=O [Compound 2, memnobotrin D] | 1390 ± 40 | 1370 ± 18 |  |  | 201 ± 16 | 4530 | 22.5 | EC50 (P. falciparum 3D7 [3]; [8]): 40 to 1370 nM |
| CC1(C)C(=O)CC[C@]2(C)[C@H]3Cc4c(O)cc5c(c4O[C@]3(C)CC[C@@H]12)CN(CCO)C5=O [Compound 1, Memnobotrin C] | < 98 | 226 |  |  | 40 ± 2 | 1200 | 30 | EC50 (T. cruzi Tulahuen C4): 266 ± 24 nM; fold improvement of biological activity against T. cruzi Tulahuen C4 compared to compound 2 (T. cruzi Tulahuen C4; [9]): 5 fold; fold improvement of biological activity against P. falciparum 3D7 compared to compound 2 (P. falciparum 3D7 [3]; [9]): 5 fold; EC50 (P. falciparum 3D7 [3]; [8]): 40 to 1370 nM |
